Data: publication PMC7821381, “Multi-Targeted Anticancer Activity of Imidazolate Phosphane Gold(I) Compounds by Inhibition of DHFR and TrxR in Breast Cancer Cells” (Frontiers in Chemistry, 2021)
Read-outs that look alike come from different tables or passages of the source. Each block holds one compound with its values, some of them ahead of it.

How the values were obtained:
SKBR3 cells [1] = test system: SKBR3 cells; set-up: method as in Serova et al., 2006; settings: SKBR3, 24 h; ref Serova et al., 2006; cited from earlier work
MDA-MB231 cells [2] = test system: MDA-MB231 cells; set-up: method as in Gambini et al., 2018; settings: MDA-MB231, 48 h; ref Gambini et al., 2018; cited from earlier work
A17 cells [3] = test system: A17 cells; set-up: method as in Gambini et al., 2018; settings: A17, 24 h; ref Gambini et al., 2018; cited from earlier work
SKBR3 cells [4] = experiment: MTT cell viability assay on SKBR3 cells; assay type: cell-based, human
Description: (§1) Human MDA-MB-231 (ER–/PR–/HER2–) and SK-BR-3 (ER–/PR–/HER2+) cells were obtained from American Type Culture Collection (Rockville, MD) and cultured in Dulbecco's Modified Essential Medium (DMEM, Gibco, Life Technologies) supplemented with 10% fetal bovine serum (FBS, Gibco, Life Technologies) and 1% penicillin–streptomycin (Gibco, Life Technologies). A17 cells were established from a spontaneous lobular carcinoma that arose in an FVB/neuT mouse (Galiè et al., [2005]), and maintained in DMEM plus 20% FBS and 1% penicillin-streptomycin. Cells were cultured at 37°C under humidified atmosphere with 5% CO2.
(§2) Stock solutions were prepared for each gold(I) compound (50 mM) using dimethyl sulfoxide (DMSO) (Sigma-Aldrich) as solvent. The effects of gold(I) compounds on SKBR3, A17 and MDA-MB231 cells viability were evaluated by seeding, respectively, 10, ^*10^3, 2.5 ^*10^3, 7, ^*10^3 cells/well in 96 wells plates in complete medium (DMEM supplemented with FBS) and compared to those of cisplatin. The day after, fresh medium containing vehicle alone (DMSO, 1 % v/v final concentration) or increasing concentrations of each compound ranging from 0.1 to 100 μM was added. Cell viability was determined using a MTT [3-(4,5-dimethylthiazol-2-yl)-2,5-diphenyl-2H-tetrazolium bromide Sigma Aldrich, St. Louis, MO] assay, which is based on the conversion of MTT to formazan crystals by mitochondrial enzymes, after 24, 48, and 72 h. The formazan deposits were dissolved in DMSO and the absorbance of each well was measured at 540 nm in Multiskan Ascent 96/384 Plate Reader. Each drug concentration was evaluated with 8 replicates and each experiment was repeated three times. At the end of the experiments a dose–response curve was plotted, and the IC50 concentrations were determined. Statistical analysis was performed using One-Way ANOVA analysis of variance followed by Dunnett's Multiple Comparison Test. Quantitative data are presented as means ± SEM. Differences were considered significant at ^*P ≤ 0.0332; ^**P ≤ 0.0021; ^***P ≤ 0.0002; ^****P ≤ 0.0001.
(§3) IC50 values were calculated for each of the cell lines tested, by fitting the concentration-effect curves data obtained in the three experiments with the sigmoid-Emax model using nonlinear regression, weighted by the reciprocal of the square of the predicted effect.

DNA = test system: DNA; set-up: method as in Nafisi et al., 2007; settings: ref Nafisi et al., 2007; cited from earlier work
MDA-MB231 cells [5] = experiment: MTT cell viability assay on MDA-MB231 cells; assay type: cell-based, human; settings: MDA-MB231, 24 h, ± S. D.
Description: as §1
as §2, with “Statistical analysis was performed using One-Way ANOVA analysis of variance followed by Dunnett's Multiple Comparison Test.” left out, “Differences were considered significant at ^*P ≤ 0.0332; ^**P ≤ 0.0021; ^***P ≤ 0.0002; ^****P ≤ 0.0001.” left out
as §3

A17 cells [6] = experiment: MTT cell viability assay on A17 cells; assay type: cell-based, murine; settings: A17, 24 h, ± S. D.
Description: as §1
as §2, with “Statistical analysis was performed using One-Way ANOVA analysis of variance followed by Dunnett's Multiple Comparison Test.” left out, “Differences were considered significant at ^*P ≤ 0.0332; ^**P ≤ 0.0021; ^***P ≤ 0.0002; ^****P ≤ 0.0001.” left out
as §3

[7] = Stability in physiological condition; assay type: physicochemical

Compound: N.N.[Cl][Pt][Cl] [Cisplatin]
IC50 (SKBR3 cells [1]): 43 ± 7 µM
IC50 (MDA-MB231 cells [2]): 50.5 ± 2 µM
IC50 (A17 cells [3]): 15.9 ± 1.17 µM

Compound: O=C(O)c1ccccc1[PH]([Au][Cl])(c1ccccc1)c1ccccc1 [Compound 1, 2-benzoic-diphenylphosphanegold chloride]
cytotoxic activity in MTT screening (SKBR3 cells [4]; SKBR3 cells, 72 h (Figure 1S) and 48 h (Figure 2)): did not show relevant cytotoxic activity

Compound: CN(C)c1ccc2cc3ccc(N(C)C)cc3nc2c1 [acridine orange]
binding constant of classical intercalators to DNA (DNA): 26900 M⁻¹

Compound: CC[n+]1c(-c2ccccc2)c2cc(N)ccc2c2ccc(N)cc21 [ethidium bromide]
binding constant of classical intercalators to DNA (DNA): 65800 M⁻¹

Compound: CN(C)c1ccc2nc3ccc(=[N+](C)C)cc-3sc2c1 [methylene blue]
binding constant of classical intercalators to DNA (DNA): 21300 M⁻¹

IC50 (SKBR3 cells [4]; SKBR3, 24 h, ± S. D.): 12.3 ± 1.1 µM
IC50 (MDA-MB231 cells [5]): 12.8 ± 0.7 µM
stability in physiological condition [7]: less stable in physiological condition
Compound: (3,5-dintropyrazolyl-1H-gold(I)-(triphenylphosphane) [Compound 4]
IC50 (A17 cells [6]): 11 ± 1 µM
